From paper PMC6136390, “Coptisine-induced inhibition of Helicobacter pylori: elucidation of specific mechanisms by probing urease active site and its maturation process” (Journal of Enzyme Inhibition and Medicinal Chemistry, 2018)
≈ marks a conversion by molar mass, not a printed value. Read-outs that look alike come from different tables or passages of the source.

Columns and labels:
H. pylori urease (HPU) = molecular target: T1, H. pylori urease (HPU) (Helicobacter pylori, UniProt P69996); assay: Urease inhibition assay in vitro (modified Berthelot method); assay type: biochemical; details: 20 min pre-incubation at 37 °C, 150 mM urea, pH 7.5; read-out: IC50 for HPU
T1 construct: Crude HPU was obtained according to the method described by Matsubara et al; endogenous in cells; host or cells: cultured Helicobacter pylori (strain not specified)
T1 sequence (P69996 whole entry): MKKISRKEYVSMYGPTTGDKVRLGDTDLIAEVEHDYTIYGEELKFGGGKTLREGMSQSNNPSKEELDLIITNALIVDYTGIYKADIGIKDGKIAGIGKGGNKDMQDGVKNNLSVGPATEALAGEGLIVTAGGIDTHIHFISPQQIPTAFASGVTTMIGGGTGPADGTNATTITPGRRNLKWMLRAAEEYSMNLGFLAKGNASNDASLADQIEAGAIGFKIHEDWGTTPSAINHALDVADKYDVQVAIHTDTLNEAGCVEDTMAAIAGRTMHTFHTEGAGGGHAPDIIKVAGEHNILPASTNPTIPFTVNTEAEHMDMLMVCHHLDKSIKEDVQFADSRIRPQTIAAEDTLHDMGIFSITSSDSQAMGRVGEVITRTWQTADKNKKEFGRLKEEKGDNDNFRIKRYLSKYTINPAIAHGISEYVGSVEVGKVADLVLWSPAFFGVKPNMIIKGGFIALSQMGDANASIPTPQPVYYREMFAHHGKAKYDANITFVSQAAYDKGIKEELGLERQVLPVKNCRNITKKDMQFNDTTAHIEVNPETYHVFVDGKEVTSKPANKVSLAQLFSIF
T1 sequence (P14916 whole entry, further chain): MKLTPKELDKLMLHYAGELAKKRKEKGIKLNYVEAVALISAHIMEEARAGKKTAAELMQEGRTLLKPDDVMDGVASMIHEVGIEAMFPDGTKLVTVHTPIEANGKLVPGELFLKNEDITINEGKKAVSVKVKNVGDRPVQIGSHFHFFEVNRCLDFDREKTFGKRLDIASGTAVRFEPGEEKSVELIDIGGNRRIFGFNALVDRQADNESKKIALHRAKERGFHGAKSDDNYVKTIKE
Method: (§1) All strains were cultured in Columbia agar base containing 7% sheep blood at 37 °C in a micro-aerophilic environment (5% O2, 10% CO2, and 85% N2). After 3 days, H. pylori was scraped and suspended in phosphate buffered saline (PBS). Turbidimetry was employed to adjust the concentrations of different H. pylori strains (turbidity equivalent to 1.0 McFarland standard). Crude HPU was obtained according to the method described by Matsubara et al.[42]
This assay was performed using the modified Berthelot method (phenol-hypochlorite) in 96 well plates. At the beginning of each reaction, different concentrations of urease solution and 150 mM urea as a substrate were mixed in 20 mM HEPES buffer (pH 7.5) at 37 °C. After a 20-min reaction, urease activity was tested by measuring the concentration of ammonia produced by the reaction at 595 nm using the microplate reader (Thermo Fisher Multiskan FC, Instruments, Inc., USA) at ambient temperature. […] One unit (U) of urease activity was defined as the amount of urease required to catalyse 1 μmol urea per min. […]
Coptisine’s ability to inhibit urease activity was determined by measuring amounts of ammonia produced using the modified Berthelot method described above. […] Residual activity (RA %) for each assay was calculated using the following equation: RA % = (activity with inhibitors/activity without inhibitors) × 100%. […]

jack bean urease (JBU) = molecular target: T2, jack bean urease (JBU) (Canavalia ensiformis, UniProt P07374); assay: as above; assay type: biochemical; details: 20 min pre-incubation at 37 °C, 150 mM urea, pH 7.5; read-out: IC50 for JBU
T2 construct: purchased Sigma Aldrich (Steineheim, Germany) type III (catalogue number not given)
T2 sequence (P07374 whole entry, looked up): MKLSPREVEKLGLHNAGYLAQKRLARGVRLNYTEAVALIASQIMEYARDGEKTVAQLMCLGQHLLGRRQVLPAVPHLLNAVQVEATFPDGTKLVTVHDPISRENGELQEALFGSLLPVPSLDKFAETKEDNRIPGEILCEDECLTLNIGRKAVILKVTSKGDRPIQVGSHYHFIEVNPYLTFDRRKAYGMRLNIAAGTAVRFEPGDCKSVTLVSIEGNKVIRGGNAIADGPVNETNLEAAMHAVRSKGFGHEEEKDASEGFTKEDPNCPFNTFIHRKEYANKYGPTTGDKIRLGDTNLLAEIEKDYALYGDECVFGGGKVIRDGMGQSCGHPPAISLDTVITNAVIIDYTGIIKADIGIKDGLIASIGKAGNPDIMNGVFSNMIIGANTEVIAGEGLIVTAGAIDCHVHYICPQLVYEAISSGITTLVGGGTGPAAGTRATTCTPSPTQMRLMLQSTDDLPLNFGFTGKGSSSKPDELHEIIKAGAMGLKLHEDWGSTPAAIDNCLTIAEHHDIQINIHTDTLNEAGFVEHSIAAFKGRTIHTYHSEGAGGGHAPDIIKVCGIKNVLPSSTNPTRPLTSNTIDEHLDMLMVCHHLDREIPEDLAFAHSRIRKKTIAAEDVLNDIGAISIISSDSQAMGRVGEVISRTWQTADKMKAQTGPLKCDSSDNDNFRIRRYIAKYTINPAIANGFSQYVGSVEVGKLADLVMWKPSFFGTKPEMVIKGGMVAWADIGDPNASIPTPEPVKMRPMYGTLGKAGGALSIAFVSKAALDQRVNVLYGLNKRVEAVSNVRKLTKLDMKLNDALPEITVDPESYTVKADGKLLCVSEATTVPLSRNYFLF
Method: This assay was performed using the modified Berthelot method (phenol-hypochlorite) in 96 well plates. At the beginning of each reaction, different concentrations of urease solution and 150 mM urea as a substrate were mixed in 20 mM HEPES buffer (pH 7.5) at 37 °C. After a 20-min reaction, urease activity was tested by measuring the concentration of ammonia produced by the reaction at 595 nm using the microplate reader (Thermo Fisher Multiskan FC, Instruments, Inc., USA) at ambient temperature. […] One unit (U) of urease activity was defined as the amount of urease required to catalyse 1 μmol urea per min. These experiments were repeated in triplicate.
Coptisine’s ability to inhibit urease activity was determined by measuring amounts of ammonia produced using the modified Berthelot method described above. The assay mixture, which contained 200 μL of enzyme and 200 μL of coptisine solution (0.16–2.51 mM) in 200 μL of 20 mM HEPES buffer (pH 7.5), was incubated for 20 min at 37 °C in 96-well plates. The reaction was then initiated by adding urea solution (150 mM) to determine residual urease activity. AHA was used as a standard urease inhibitor. […] Residual activity (RA %) for each assay was calculated using the following equation: RA % = (activity with inhibitors/activity without inhibitors) × 100%. […]

H. pylori cells (SS1) = assay: pH shock experiment in vivo (urea-dependent survival of H. pylori); assay type: cell-based, Helicobacter pylori; details: 30 min; for surviving bacteria, pH =1: 100 mM HCl pH 1, 5 mM urea; for surviving bacteria, pH =7.2: PBS pH 7.2, 5 mM urea; for inhibition at 100 µM: Helicobacter pylori, 0.5 h
Method: H. pylori cells (SS1) were harvested, and the concentration was adjusted to Mc = 4 with saline. Then, bacterial samples were mixed with AHA (positive control, 5 mM) or one of the five alkaloids from Rhizoma Coptidis (coptisine, berberine, jatrorrhizine, epiberberine, and palmatine) in 100 mM HCl (pH = 1) or PBS (pH = 7.2) at 37 °C with or without 5 mM urea. After 30 min of incubation, bacteria were collected by centrifugation at 2000g for 10 min and resuspended in the same volume of PBS. A dilution series (1:1–1:10000) was made from the samples, and the dilutions were plated on solid agar for 5 days to form single colony. Samples from urea-free wells were used as controls. Results are expressed as CFU/mL; the experiment was repeated in triplicate. Inhibition rate was calculated using the following equation: Inhibition rate = (Urea group bacterial mean − X group bacterial mean)/Urea group bacterial mean ×100%, where X represents each experimental group.

H. pylori strains = assay: Minimal inhibitory concentration assay (agar dilution); assay type: cell-based, Helicobacter pylori; details: Helicobacter pylori, NCTC11637; standard strain NCTC 11637, pH 7.2; read-out: MIC
Text: Fourteen H. pylori strains were used in this study. NCTC 11637 and NCTC 26695 strains were purchased from American Type Culture Collection. Sydney Strain-1 (SS1) was kindly provided by Prof. Richard Ferrero of Monash University, Australia. Clinical isolate ICDC 111001 was provided by Prof. Zhang Jian-zhong of the Chinese Center for Disease Control and Prevention, China. Ten clinical isolates (Hp1868, Hp1869, Hp1870, Hp1871, Hp1872, Hp1873, Hp1874, Hp1875, Hp1876, and Hp1877) were obtained from Renji Hospital, Shanghai Jiaotong University.
as §1
In this study, different concentrations (12.5, 25, 50, and 100 μg/mL) of berberine, palmatine, epiberberine, jatrorrhizine, and coptisine were used to evaluate antimicrobial activity against the standard H. pylori strain NCTC 11637. The agar dilution method was then used to analyse the antibacterial effects of coptisine against two H. pylori standard strains (SS1 and NCTC 26695) and eleven clinical isolates (ICDC 111001, HP 1868, HP 1869, HP 1870, HP 1871, HP 1872, HP 1873, HP 1874, HP 1875, HP 1876, and HP 1877). In this assay, 100 μL of H. pylori suspension (McFarland = 1.0) was added to the test compound-containing or DMSO-containing (control) Columbia blood agar plate. CLR and MET were used as positive controls in this experiment. Minimum inhibitory concentration (MIC) was defined as the lowest concentration at which no strain growth was observed by visual examination after 3 days. This experiment was repeated twice.

urease = tested on: urease; parameters: method as in PMID 26669678; details: cited from earlier work
[1] = 100 μM compound, pH 1, 5 mM urea
[2] = 100 μM compound, pH 7.2, 5 mM urea
[3] = 100 μM compound, pH 1, 5 mM urea, read-out: Inhibition rate, pH =1
[4] = 100 μM compound, pH 7.2, 5 mM urea, read-out: Inhibition rate, pH =7.2

SMILES | IC50 (H. pylori urease (HPU)) | IC50 (jack bean urease (JBU)) | surviving bacteria, pH =1 (H. pylori cells (SS1); 5 mM compound) | surviving bacteria, pH =7.2 (H. pylori cells (SS1); 5 mM compound) | Inhibition rate, pH =1 (H. pylori cells (SS1); 5 mM compound, pH 1, 5 mM urea) | Inhibition rate, pH =7.2 (H. pylori cells (SS1); 5 mM compound, pH 7.2, 5 mM urea) | MIC (H. pylori strains) | inhibitory activity against urease (urease) | surviving bacteria, pH =1 (H. pylori cells (SS1); 100 μM compound) | surviving bacteria, pH =7.2 (H. pylori cells (SS1); 100 μM compound) | Inhibition rate, pH =1 (H. pylori cells (SS1); [1]) | Inhibition rate, pH =7.2 (H. pylori cells (SS1); [2]) | inhibition at 100 µM (H. pylori cells (SS1); [3]) | inhibition at 100 µM (H. pylori cells (SS1); [4])
CC(=O)NO [Acetohydroxamic acid, reference compound] | 90 ± 10 µM | 20 ± 10 µM | 0 ± 0 CFU/mL | 1.7 ± 0.4 ×10^4 CFU/mL | 100% | 0% | – | – | – | – | – | – | – | –
COc1ccc2cc3[n+](cc2c1OC)CCc1cc2c(cc1-3)OCO2 [Berberine] | – | – | – | – | – | – | 50 µg/mL | fails to show any inhibitory activity | 587 ± 103 CFU/mL | 1.2 ± 0.4 ×10^4 CFU/mL | failed to inhibit | failed to inhibit | 0% | 0%
CC[C@H]1OC(=O)[C@H](C)[C@@H](O[C@H]2C[C@@](C)(OC)[C@@H](O)[C@H](C)O2)[C@H](C)[C@@H](O[C@@H]2O[C@H](C)C[C@H](N(C)C)[C@H]2O)[C@](C)(OC)C[C@@H](C)C(=O)[C@H](C)[C@@H](O)[C@]1(C)O [CLR, Clarithromycin, reference compound] | – | – | – | – | – | – | 0.02 µg/mL (≈ 0.0267 µM) | – | – | – | – | – | – | –
COc1cc2c(cc1OC)-c1cc3ccc4c(c3c[n+]1CC2)OCO4 [Epiberberine] | – | – | – | – | – | – | 100 µg/mL | – | 481 ± 92 CFU/mL | 1.3 ± 0.3 ×10^4 CFU/mL | failed to inhibit | failed to inhibit | 0% | 0%
COc1cc2c(cc1O)CC[n+]1cc3c(OC)c(OC)ccc3cc1-2 [Jatrorrhizine] | – | – | – | – | – | – | 100 µg/mL | – | 552 ± 98 CFU/mL | 1.2 ± 0.3 ×10^4 CFU/mL | failed to inhibit | failed to inhibit | 0% | 0%
Cc1ncc([N+](=O)[O-])n1CCO [MET, Metronidazole, reference compound] | – | – | – | – | – | – | 0.5 µg/mL (≈ 2.92 µM) | – | – | – | – | – | – | –
COc1cc2c(cc1OC)-c1cc3ccc(OC)c(OC)c3c[n+]1CC2 [Palmatine] | – | – | – | – | – | – | 100 µg/mL | – | 628 ± 110 CFU/mL | 1.2 ± 0.4 ×10^4 CFU/mL | failed to inhibit | failed to inhibit | 0% | 0%
